For assay [1], the system named is HEK293sieSTAT3(Y640F). The assay is described as follows: drug sensitivity score (DSS), viability CellTiter-Glo (DSS (dimensionless)); higher = more growth inhibition; extreme values may be limits of the assay. As to conditions: 72 h; STAT3 variant: Y640F (constitutively active). A digest of the protocol: (§1)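 Compounds were acoustically pre-plated in 384-well plates at 5 concentrations spaced by 10-fold dilutions, and HEK293 cells overexpressing wild-type or mutant STAT3 and carrying a STAT3-dependent luciferase reporter were added at 100,000 cells/ml in 20 μl. After 72 hours at 37°C and 5% CO2, the plates were read on a PHERAstar FS for CellTox Green fluorescence (485/520 nm) and then CellTiter-Glo luminescence. A drug sensitivity score derived from dose-response curve area was calculated in Breeze from values normalised to negative and positive control wells.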
On the technique in general: Cellular ATP, detected with luciferase, serves as a proxy for viable cell number.

The test system of assay [2] is HEK293sieSTAT3(wt). The assay is described as above. As to conditions: 72 h; STAT3 variant: wild type. In a few lines:
as §1

For assay [3], the system named is HEK293sieSTAT3(Y640F). Kind of assay: drug sensitivity score (DSS), cytotoxicity CellTox Green (DSS (dimensionless)); higher = more cytotoxic; extreme values may be limits of the assay. As to conditions: 72 h; STAT3 variant: Y640F (constitutively active). A digest of the protocol: as §1
In assay [4] the test system is HEK293sieSTAT3(wt). The assay is described as above. As to conditions: 72 h; STAT3 variant: wild type. In a few lines: as §1

As for `CCC1=C[C@@H]2CN(C1)Cc1c([nH]c3ccccc13)[C@@](C(=O)OC)(c1cc3c(cc1OC)N(C)[C@H]1[C@@](O)(C(=O)OC)[C@H](OC(C)=O)[C@]4(CC)C=CCN5CC[C@]31[C@@H]54)C2` [Vinorelbine] (top concentration tested 10000 nM), the drug sensitivity score in assay [1] turned out to be 30.6; in assay [2], 34; in assay [3], 5.27; in assay [4], 19.2.

`CS(=O)(=O)c1ccc(C(=O)Nc2ccc(Cl)c(-c3ccccn3)c2)c(Cl)c1` [Vismodegib] (top concentration tested 10000 nM): the drug sensitivity score in assay [1] worked out at 0.91; in assay [2], 0.09; in assay [3], 0; in assay [4] it was 0.14.

With `CC[C@@H]1C(=O)N(C)c2cnc(Nc3ccc(C(=O)N[C@H]4CC[C@H](N5CCN(CC6CC6)CC5)CC4)cc3OC)nc2N1C(C)C` [Volasertib] (top concentration tested 1000 nM), the drug sensitivity score in assay [1] was found to be 22.1; in assay [2] it was 21.7; in assay [3], 12.6; in assay [4], 21.4.

`O=C(CCCCCCC(=O)Nc1ccccc1)NO` [Vorinostat] (top concentration tested 10000 nM): the drug sensitivity score was 10.6 in assay [1], 9.87 in assay [2], 2.86 in assay [3] and 4.68 in assay [4].

With `CCn1c(=O)c(-c2cc[nH]n2)cc2c(C)nc(N)nc21` [Voxtalisib] (top concentration tested 10000 nM), the drug sensitivity score in assay [1] was found to be 8.35; in assay [2] it was 9.9; in assay [3], 0; in assay [4], 3.54.

Take `Oc1nc(-c2ccc(C(F)(F)F)cc2)nc2c1CSCC2` [XAV-939] (top concentration tested 10000 nM): the drug sensitivity score in assay [1] is 0.17; in assay [2], 1.46; in assay [3] it was 0; in assay [4] it was 0.

Take `O=C(Nc1ccc(-c2ccnc(Nc3ccc(N4CCOCC4)cc3)n2)cc1)C1CCCN1` (centres undefined) [XL019] (top concentration tested 10000 nM): the drug sensitivity score in assay [1] turned out to be 1.98; in assay [2], 2.07; in assay [3], 0; in assay [4], 0.

As to `COc1cc2c(Nc3ccc(Cl)c(Cl)c3F)ncnc2cc1OC[C@@H]1C[C@@H]2CN(C)C[C@@H]2C1` [XL-647] (top concentration tested 1000 nM), the drug sensitivity score in assay [1] turned out to be 1.72; in assay [2] it was 0.88; in assay [3], 0; in assay [4], 0.

Consider `COCC[n+]1c2c(n(Cc3cnccn3)c1C)C(=O)c1ccccc1C2=O` [YM155] (top concentration tested 10000 nM), for which the drug sensitivity score came to 30.4 in assay [1], 34.7 in assay [2], 12.8 in assay [3] and 27.5 in assay [4].

Take `FC(F)c1nc2ccccc2n1-c1nc(N2CCOCC2)nc(N2CCOCC2)n1` [ZSTK474] (top concentration tested 10000 nM): the drug sensitivity score in assay [1] was found to be 12.8; in assay [2] it was 16.6; in assay [3] it was 0; in assay [4], 6.5.

`c1ccc(Cn2c(-c3ccc(OC[C@H](C4CCNCC4)n4c(-c5ccccc5)nc5ccccc54)cc3)nc3ccccc32)cc1` [deltarasin] (top concentration tested 10000 nM): the drug sensitivity score in assay [1] was 7.04; in assay [2] it was 8.74; in assay [3] it was 7.78; in assay [4], 8.33.

(Values after the supplement of paper PMC7108870.)
